Marks after values point to notes of the source that are not given here.
Molecular target: T1, TRPA1 (Homo sapiens, UniProt O75762)
T1 construct: Human sensory neurons were obtained from pluripotent stem cells and cultured in culture plates; endogenous in cells; host or cells: human pluripotent-stem-cell-derived sensory neurons co-cultured with human keratinocytes
Assay: Protection against activation of TRPA1 following AITC stimulation, Fluo-4 AM calcium fluorescence in keratinocyte-sensory neuron co-culture
Format: cell-based
Settings: for Activation of TRPA1 following stimulation with AITC, fluorescence, Mean +/- sem: human keratinocyte-neuron co-culture, 1 mM AITC, 6 replicates, 3 minutes
Description: The in vitro example described here relates to the reduction in the activation of the receptor TRPA1, involved in the induction of sensations of itching/irritation/scratching/pain of the skin following certain stimulations.
Protection Against Activation of TRPA1 (Neuron Experts Service)
Human sensory neurons were obtained from pluripotent stem cells and cultured in culture plates. Human keratinocytes were grown and then seeded above the neurons.
After 19 days of co-culture at 37° C. in a humid atmosphere under 5% CO2, the test products or the positive reference, HC030031 (C18H21N5O3), at 10 μM, and also the fluorescent probe Fluo-4 AM, were added to the co-culture. The Fluo-4 AM probe makes it possible to follow the rapid kinetics of the variation of the intracellular calcium concentration by measuring in real time its fluorescence intensity, and the calcium flux is associated with activation of TRPA1.
After 30 minutes of incubation, the culture medium was removed and the cultures were washed and then reincubated with the test products. Immediately afterwards, they were placed under an inverted microscope and observed in epifluorescence. […] Five seconds after starting the recording, the neurons were stimulated with 10^-3 M AITC (allyl isothiocyanate).
The experiments were carried out in 6 replicates. The fluorescence was analyzed for 3 minutes.
The fluorescence values were expressed as means+/−sem [standard error of the mean=standard deviation/root (number of values)].
For each condition, the percentages of stimulation and of protection were calculated as follows: % stimulation=100×[mean(condition)]/[mean(cells stimulated with AITC)] % protection=100×[mean(condition)−mean(cells stimulated with AITC)]/[mean(unstressed cells)−mean(cells stimulated with AITC)].
Statistical analysis was performed by a one-way ANOVA test with a significance threshold set at 5%, by comparing the conditions in pairs. A difference between the efficacy of two products was considered: • significant if p<0.05; • “at the limit of significance” if 0.05≤p<0.1; • and not significant if p>0.1.

[1] = HC030031 10 μM, coriander seed oil 0.001%

T1 sequence (O75762 whole entry): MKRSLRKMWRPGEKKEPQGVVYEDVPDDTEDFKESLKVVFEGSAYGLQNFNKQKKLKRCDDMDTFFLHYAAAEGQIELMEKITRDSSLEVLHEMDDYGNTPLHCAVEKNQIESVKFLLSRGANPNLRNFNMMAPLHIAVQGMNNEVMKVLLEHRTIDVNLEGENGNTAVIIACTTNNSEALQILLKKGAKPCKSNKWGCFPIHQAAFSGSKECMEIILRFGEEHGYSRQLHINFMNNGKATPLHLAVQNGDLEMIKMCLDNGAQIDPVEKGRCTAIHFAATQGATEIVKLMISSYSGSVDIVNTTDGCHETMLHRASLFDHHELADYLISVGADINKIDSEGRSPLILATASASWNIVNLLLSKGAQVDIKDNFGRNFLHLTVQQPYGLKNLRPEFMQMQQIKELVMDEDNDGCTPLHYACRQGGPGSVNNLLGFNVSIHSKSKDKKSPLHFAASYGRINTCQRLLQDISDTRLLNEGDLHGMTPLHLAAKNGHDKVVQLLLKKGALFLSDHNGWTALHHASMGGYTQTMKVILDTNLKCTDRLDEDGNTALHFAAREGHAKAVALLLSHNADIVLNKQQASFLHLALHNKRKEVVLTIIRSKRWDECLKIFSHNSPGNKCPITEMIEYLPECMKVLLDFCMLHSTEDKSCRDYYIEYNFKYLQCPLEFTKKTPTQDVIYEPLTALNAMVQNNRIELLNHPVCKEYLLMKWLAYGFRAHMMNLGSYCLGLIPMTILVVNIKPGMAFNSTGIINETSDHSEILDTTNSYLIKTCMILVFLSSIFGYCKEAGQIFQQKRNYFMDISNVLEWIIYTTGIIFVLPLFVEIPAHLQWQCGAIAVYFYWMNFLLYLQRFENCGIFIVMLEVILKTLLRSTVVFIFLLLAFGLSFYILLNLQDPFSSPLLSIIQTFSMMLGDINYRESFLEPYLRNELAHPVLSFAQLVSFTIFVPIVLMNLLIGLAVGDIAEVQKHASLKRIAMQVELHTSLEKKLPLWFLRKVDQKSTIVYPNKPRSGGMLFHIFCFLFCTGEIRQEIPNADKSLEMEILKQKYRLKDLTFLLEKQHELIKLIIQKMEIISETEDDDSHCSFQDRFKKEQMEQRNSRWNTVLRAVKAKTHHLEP

Row | SMILES | Activation of TRPA1 following stimulation with AITC, fluorescence, Mean +/- sem [1] | increase in the activation of TRPA1 vs non-stimulated cells (keratinocyte-neuron co-culture, AITC stimulation) [%] | reduction of the activation of TRPA1 (AITC-stimulated keratinocyte-neuron co-culture, coriander seed oil 0.001%) [%] | % protection (against 1 mM AITC stimulation, HC030031 10 μM, coriander seed oil 0.001%) [%] | % stimulation (relative to cells stimulated with 1 mM AITC, HC030031 10 μM, coriander seed oil 0.001%) [%]
1 | C=CCN=C=S [AITC, allyl isothiocyanate] | 34035 +/− 1910*** AU | 585 | – | – | –
2 | CC(C)c1ccc(NC(=O)Cn2cnc3c2c(=O)n(C)c(=O)n3C)cc1 [HC030031] | 8537 +/− 553*** AU | – | 88 | 88 | 25
